In BindingDB's records for doi:10.1016/j.bmcl.2007.01.064 (Vertex Pharmaceuticals, 2007) one finds Ki data, which are given here for 1 compound.

For the test, the target named is T1, Disintegrin and metalloproteinase domain-containing protein 17 [215-477,S266A,N452Q] (Homo sapiens, UniProt P78536, N452Q/S266A).
T1 construct: 215-477
As to the kind of experiment: TACE Inhibition Assay. The conditions noted are these: pH 7.5; 22 °C. The protocol:
The compounds were tested for TACE inhibition using fluorescence resonance energy transfer (FRET) assay. TACE catalyzed cleavage of the substrate peptide liberates the fluoropore from the proximity of the adjacent quenching moiety, and an increase in fluorescence signal results.

T1 sequence (P78536 215-477 S266A/N452Q): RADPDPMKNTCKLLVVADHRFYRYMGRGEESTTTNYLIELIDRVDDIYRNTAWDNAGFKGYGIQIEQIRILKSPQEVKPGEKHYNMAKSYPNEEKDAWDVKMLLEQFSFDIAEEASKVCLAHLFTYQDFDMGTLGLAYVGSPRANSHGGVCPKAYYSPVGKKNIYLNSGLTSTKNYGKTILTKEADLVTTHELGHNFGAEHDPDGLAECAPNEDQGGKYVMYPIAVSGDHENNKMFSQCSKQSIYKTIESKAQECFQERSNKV

In turn, `CC#CCOc1ccc(S(=O)(=O)N(C)CCS)cc1` [4-(but-2-yn-1-yloxy)-N-methyl-N-(2-sulfanylethyl)benzene-1-sulfonamide] displayed a Ki of 56 nM. This counts as double-digit nanomolar.

The Ki is the dissociation constant of the complex between target and ligand, obtained from inhibition or displacement.
